Experimental data taken from PubChem BioAssay (NCI).
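Values below derive from 48-hour exposures of cells grown in 96-well plates, with endpoints linearly interpolated between the two concentrations bracketing the appropriate inhibition level. GI50 marks 50% less growth. TGI denotes the concentration required for complete inhibition of growth.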

How the values were obtained:
Test in all cases: DTP human tumour cell line panel, 48 h
CCRF-CEM leukemia = test system: CCRF-CEM leukemia
EKVX NSCLC = test system: EKVX NSCLC
M14 melanoma = test system: M14 melanoma
MALME-3M melanoma = test system: MALME-3M melanoma
NCI-H226 lung = test system: NCI-H226 lung
SK-MEL-28 melanoma = test system: SK-MEL-28 melanoma
SNB-75 CNS = test system: SNB-75 CNS
TK-10 renal = test system: TK-10 renal
U251 CNS = test system: U251 CNS
NCI-H460 lung = test system: NCI-H460 lung

SMILES	GI50 (CCRF-CEM leukemia) [µM]	TGI (CCRF-CEM leukemia) [µM]	GI50 (EKVX NSCLC) [µM]	TGI (EKVX NSCLC) [µM]	GI50 (M14 melanoma) [µM]	TGI (M14 melanoma) [µM]	GI50 (MALME-3M melanoma) [µM]	TGI (MALME-3M melanoma) [µM]	GI50 (NCI-H226 lung) [µM]	TGI (NCI-H226 lung) [µM]	GI50 (SK-MEL-28 melanoma) [µM]	TGI (SK-MEL-28 melanoma) [µM]	GI50 (SNB-75 CNS) [µM]	TGI (SNB-75 CNS) [µM]	GI50 (TK-10 renal) [µM]	TGI (TK-10 renal) [µM]	GI50 (U251 CNS) [µM]	TGI (U251 CNS) [µM]	GI50 (NCI-H460 lung) [µM]	TGI (NCI-H460 lung) [µM]
Nc1nc2c([nH]1)c1[nH]c3ccccc3c1c1[nH]c3ccccc3c21	3.33	12.4	14.1	30.8	14.4	27.8	1.86	4.45	19.8	45.5	11.5	23.7	11.9	25.1	22.7	37.7	3.99	14.3	–	–
COC(=O)c1sc(=S)c2sc(C(=O)OC)c(C(=O)OC)c2c1C(=O)OC	30.8	80.1	89.9	> 100	32.5	> 100	–	–	42	> 100	71.8	> 100	52	> 100	18.1	89.8	50.5	> 100	44.3	> 100
CC(=O)OCCc1cc2ccccc2oc1=O	–	> 100	–	> 100	–	> 100	–	> 100	–	> 100	–	> 100	–	> 100	–	–	–	> 100	–	> 100
COc1ccc(C2NC(c3ccc(OC)cc3)C(C)C(=O)C2C)cc1 (stereo unspecified)	–	> 100	–	> 100	–	> 100	–	> 100	–	–	–	> 100	–	> 100	–	> 100	–	> 100	–	> 100
COc1ccc(S(=O)(=O)NNS(C)(=O)=O)cc1OC	–	> 100	–	> 100	–	> 100	–	> 100	–	> 100	–	–	–	> 100	–	> 100	–	> 100	–	> 100
COc1cc2c(cc1OC)C(Sc1ccc(Cl)cc1)c1c(nc(N)c(C#N)c1N)O2 (stereo unspecified)	0.311	2.63	1.57	3.02	1.63	3.1	1.49	3.1	–	–	1.57	3.11	1.14	2.42	1.43	2.75	0.916	2.14	1.65	3.74
COc1ccc(N=C2C(=O)Nc3ccc(Br)cc32)cc1	–	37.2	–	47.1	–	37.2	–	43	–	35.5	–	84.6	–	–	–	56.9	–	96.8	–	78.4
O=C(/C=C/c1ccccn1)c1ccccc1	2.43	6.61	15.4	31.2	–	–	13.8	35.1	15.2	29.7	6.09	19.2	5.57	21	12.8	25.6	1.94	5.43	4.44	18.1
C=C(c1ccc(C(=O)NCCCn2ccnc2)cc1)c1cc2c(cc1C)C(C)(C)CCC2(C)C	–	–	4.84	> 100	0.0627	2.04	3.2	22.4	2.1	7.94	1.71	6.38	2.46	7.82	2.97	7.87	0.288	3.29	0.87	10.5
Clc1cc(Cl)cc(Nc2ccc3c(OCCCN4CCOCC4)cccc3n2)c1	2.36	6.36	2.95	9.15	1.86	4	2.5	6.33	3.17	10.7	1.65	3.3	–	–	2.38	5	1.98	3.95	2.42	5.86
COc1ccc(/C(C#N)=C2/O/C(=N/N)C(c3ccc(OC)c(OC)c3)C2=O)cc1OC (stereo unspecified)	–	> 100	–	> 100	–	> 100	–	> 100	–	> 100	–	> 100	–	> 100	–	> 100	–	> 100	–	–
N#CC(C#N)=C/C=C/c1ccccc1[N+](=O)[O-]	–	> 10	–	> 10	–	–	–	> 10	–	> 10	–	5.47	–	> 10	–	> 10	–	> 10	–	> 10
Nc1c([N+](=O)[O-])ncn1C1OC(CO)C(O)C1O (stereo unspecified)	> 100	> 100	> 100	> 100	> 100	> 100	–	–	> 100	> 100	> 100	> 100	> 100	> 100	> 100	> 100	> 100	> 100	> 100	> 100
OCCN1CCCN(CCCN2c3ccccc3Sc3ccc(C(F)(F)F)cc32)CC1	2.42	5.76	–	–	1.97	3.9	2.02	3.82	15.1	39.1	1.64	3.03	1.21	8.51	1.68	3.58	2.04	4.32	1.95	3.77
COc1cc(COC(=O)N(C)[C@@H](Cc2ccccc2)C(=O)O)c([N+](=O)[O-])cc1OC	–	> 100	–	> 100	–	> 100	–	> 100	–	> 100	–	–	–	> 100	–	–	–	> 100	–	> 100
